From patent publication US8138175B2, “Heterocyclyl compounds” (Hoffmann-La Roche Inc., priority 2008, dated 2012)

What follows are compounds tested against T1, human chemokine receptor 2 isoform B (Homo sapiens, UniProt P41597) (assay: Calcium mobilization assay). Conditions: Ca mobilization assay for CCR2; CHOK1-CCR2B-A5 cells; antagonist activity against 20 nM MCP-1; FLIPR, Fluo-4.
T1 construct: host or cells: CHOK1-CCR2B-A5 (CHO-K1) cells
T1 sequence (P41597 1-360 isoform P41597-2): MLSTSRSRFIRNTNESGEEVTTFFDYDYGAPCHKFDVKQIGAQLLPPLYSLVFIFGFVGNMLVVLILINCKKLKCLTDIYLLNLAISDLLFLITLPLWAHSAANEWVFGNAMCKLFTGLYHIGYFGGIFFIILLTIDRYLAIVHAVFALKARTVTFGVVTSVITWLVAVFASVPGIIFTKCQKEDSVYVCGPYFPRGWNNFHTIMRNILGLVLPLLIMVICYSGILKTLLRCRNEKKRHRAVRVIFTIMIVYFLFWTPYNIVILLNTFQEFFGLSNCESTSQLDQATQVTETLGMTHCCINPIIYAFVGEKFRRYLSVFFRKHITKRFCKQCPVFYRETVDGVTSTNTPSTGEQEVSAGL
Assay type: cell-based
Description: Calcium Mobilization Assay
CHOK1-CCR2B-A5 cells (from Euroscreen) stably overexpressing the human chemokine receptor 2 isoform B were cultured in Nutrient Hams F12 medium supplemented with 5% FBS, 100 U/ml penicillin, 100 μg/ml streptomycin, 400 μg/ml G418 and 5 μg/ml puromycin.
For the assay cells were grown overnight in 384-well black clear flat bottom polystyrene plates (Costar) at 37° C. at 5% CO2. After washing with DMEM, 20 mM Hepes, 2.5 mM probenecid, 0.1% BSA (DMEM assay buffer) cells were loaded with 4 μM Fluo-4 in the same DMEM assay buffer for 2 hours at 30° C. Excess dye was removed and cells were washed with DMEM assay buffer. 384-well compound plates were prepared with DMEM assay buffer/0.5% dimethyl sulfoxide with or without various concentrations of test compounds. Usually compounds were tested for agonist and antagonist activity.
Test compounds were added to the assay plate and agonist activity was monitored as fluorescence for 80 seconds with a FLIPR (488 nm excitation; 510-570 nm emission; Molecular Devices). After 20-30 min. of incubation at 30° C., 20 nM MCP-1 (R&D; Roche) was added and fluorescence was monitored again for 80 seconds. Increases in intracellular calcium are reported as maximum fluorescence after agonist exposure minus basal fluorescence before exposure. Antagonist activity is indicated as inhibitor concentration required for 50% inhibition of specific calcium increases.

| SMILES | IC50 [nM] |
| --- | --- |
| C[C@H]1C(=O)N(CCCN2CCCCC2)CCN1c1ccc(Cl)c(Cl)c1 [Example 72, (S)-4-(3,4-Dichloro-phenyl)-3-methyl-1-(3-piperidin-1-yl-propyl)-piperazin-2-one] | 306 |
| C[C@H]1C(=O)N(CCCN2CCC3(CC3)[C@H](O)C2)CCN1c1ccc(Cl)c(C(F)(F)F)c1 [Example 76, (S)-4-(4-Chloro-3-trifluoromethyl-phenyl)-1-[3-((S)-4-hydroxy-6-aza-spiro[2.5]oct-6-yl)-propyl]-3-methyl-piperazin-2-one] | 7 |
| C[C@H]1C(=O)N(CCCN2CCC3(CC3)[C@H](O)C2)CCN1c1ccc(F)c(C(F)(F)F)c1 [Example 78, (S)-4-(4-Fluoro-3-trifluoromethyl-phenyl)-1-[3-((S)-4-hydroxy-6-aza-spiro[2.5]oct-6-yl)-propyl]-3-methyl-piperazin-2-one] | 13 |
| C[C@H]1C(=O)N(CCCN2CCC3(CC3)[C@H](O)C2)CCN1c1ccc(C(F)(F)F)c(Cl)c1 [Example 83, (S)-4-(3-Chloro-4-trifluoromethyl-phenyl)-1-[3-((S)-4-hydroxy-6-aza-spiro[2.5]oct-6-yl)-propyl]-3-methyl-piperazin-2-one] | 2 |
| C[C@H]1C(=O)N(CCCN2CCC3(CC3)[C@H](O)C2)CCN1c1ccc(Cl)c(OC(F)(F)F)c1 [Example 84, (S)-4-(4-Chloro-3-trifluoromethoxy-phenyl)-1-[3-((S)-4-hydroxy-6-aza-spiro[2.5]oct-6-yl)-propyl]-3-methyl-piperazin-2-one] | 15 |
| C[C@H]1C(=O)N(CCCN2CCC3(CC3)[C@H](O)C2)CCN1c1ccc(F)c(OC(F)(F)F)c1 [Example 86, (S)-4-(4-Fluoro-3-trifluoromethoxy-phenyl)-1-[3-((S)-4-hydroxy-6-aza-spiro[2.5]oct-6-yl)-propyl]-3-methyl-piperazin-2-one] | 33 |
| CC[C@H]1C(=O)N(CCCN2CCC3(CC3)[C@H](O)C2)CCN1c1ccc(Cl)c(Cl)c1 [Example 87, (S)-4-(3,4-Dichloro-phenyl)-3-ethyl-1-[3-((S)-4-hydroxy-6-aza-spiro[2.5]oct-6-yl)-propyl]-piperazin-2-one] | 53 |
| CC[C@@H]1C(=O)N(CCCN2CCC3(CC3)[C@H](O)C2)CCN1c1ccc(Cl)c(Cl)c1 [Example 88, (R)-4-(3,4-dichloro-phenyl)-3-ethyl-1-[3-((S)-4-hydroxy-6-aza-spiro[2.5]oct-6-yl)-propyl]-piperazin-2-one] | 325 |
| C[C@H]1C(=O)N(CCCCN2CCC3(CC3)[C@H](O)C2)CCN1c1cccc(OC(F)(F)F)c1 [Example 95, (S)-1-[4-((S)-4-Hydroxy-6-aza-spiro[2.5]oct-6-yl)-butyl]-3-methyl-4-(3-trifluoromethoxy-phenyl)-piperazin-2-one] | 13 |
| C[C@H]1C(=O)N(C[C@@H](O)CN2CCC3(CC3)[C@H](O)C2)CCN1c1ccc(Cl)c(Cl)c1 [Example 99, (S)-4-(3,4-dichloro-phenyl)-1-[(S)-2-hydroxy-3-((S)-4-hydroxy-6-aza-spiro[2.5]oct-6-yl)-propyl]-3-methyl-piperazin-2-one] | 8 |
| C[C@@H]1C(=O)N(C[C@H](O)CN2CCC3(CC3)[C@H](O)C2)CCN1c1ccc(Cl)c(Cl)c1 [Example 100, (R)-4-(3,4-Dichloro-phenyl)-1-[(R)-2-hydroxy-3-((S)-4-hydroxy-6-aza-spiro[2.5]oct-6-yl)-propyl]-3-methyl-piperazin-2-one] | 334 |
| C[C@H]1C(=O)N(C[C@H](O)CN2CCC3(CC3)[C@H](O)C2)CCN1c1ccc(Cl)c(Cl)c1 [Example 101, (S)-4-(3,4-dichloro-phenyl)-1-[(R)-2-hydroxy-3-((S)-4-hydroxy-6-aza-spiro[2.5]oct-6-yl)-propyl]-3-methyl-piperazin-2-one] | 73 |
| C[C@H]1C(=O)N(C[C@H](O)CCN2CCC3(CC3)[C@H](O)C2)CCN1c1ccc(Cl)c(Cl)c1 [Example 104, (S)-4-(3,4-Dichloro-phenyl)-1-[(R)-2-hydroxy-4-((S)-4-hydroxy-6-aza-spiro[2.5]oct-6-yl)-butyl]-3-methyl-piperazin-2-one] | 203 |
| C[C@H]1C(=O)N(C[C@@H](O)CCN2CCC3(CC3)[C@H](O)C2)CCN1c1ccc(Cl)c(Cl)c1 [Example 105, (S)-4-(3,4-Dichloro-phenyl)-1-[(S)-2-hydroxy-4-((S)-4-hydroxy-6-aza-spiro[2.5]oct-6-yl)-butyl]-3-methyl-piperazin-2-one] | 27 |
| CC1C(=O)N(CC[C@H](O)CN2CCC3(CC3)[C@H](O)C2)CCN1c1ccc(Cl)c(Cl)c1 (stereo partly drawn) [Example 107, 4-(3,4-Dichloro-phenyl)-1-[(S)-3-hydroxy-4-((S)-4-hydroxy-6-aza-spiro[2.5]oct-6-yl)-butyl]-3-methyl-piperazin-2-one] | 15 |

Other lines, results leading:

| IC50 [nM] | SMILES |
| --- | --- |
| 5 | C[C@H]1C(=O)N(CCCN2CCC3(CC3)[C@H](O)C2)CCN1c1ccc(Cl)c(Cl)c1 [Example 74, (S)-4-(3,4-Dichloro-phenyl)-1-[3-((S)-4-hydroxy-6-aza-spiro[2.5]oct-6-yl)-propyl]-3-methyl-piperazin-2-one] |
| 29 | C[C@H]1C(=O)N(CCCN2CCC3(CC3)[C@H](O)C2)CCN1c1ccc(F)c(Cl)c1 [Example 79, (S)-4-(3-Chloro-4-fluoro-phenyl)-1-[3-((S)-4-hydroxy-6-aza-spiro[2.5]oct-6-yl)-propyl]-3-methyl-piperazin-2-one] |
| 318 | C[C@H]1C(=O)N(CCCN2CCC3(CC3)[C@H](O)C2)CCN1c1ccc(-c2ccccc2)cc1 [Example 80, (S)-4-Biphenyl-4-yl-1-[3-((S)-4-hydroxy-6-aza-spiro[2.5]oct-6-yl)-propyl]-3-methyl-piperazin-2-one] |
| 73 | C[C@H]1C(=O)N(CCCN2CCC3(CC3)[C@H](O)C2)CCN1c1ccc2ccccc2c1 [Example 82, (S)-1-[3-((S)-4-Hydroxy-6-aza-spiro[2.5]oct-6-yl)-propyl]-3-methyl-4-naphthalen-2-yl-piperazin-2-one] |
| 35 | CC1C(=O)N(CCCN2CCC3(CC3)[C@H](O)C2)CCN1c1cccc(I)c1 (stereo partly drawn) [Example 89, 1-[3-((S)-4-Hydroxy-6-aza-spiro[2.5]oct-6-yl)-propyl]-4-(3-iodo-phenyl)-3-methyl-piperazin-2-one] |
| 508 | CC1C(=O)N(CCCN2CCC3(CC3)[C@H](O)C2)CCN1c1cccc(-c2ccccc2)c1 (stereo partly drawn) [Example 90, 4-Biphenyl-3-yl-1-[3-((S)-4-hydroxy-6-aza-spiro[2.5]oct-6-yl)-propyl]-3-methyl-piperazin-2-one] |
| 8 | C[C@H]1C(=O)N(CCCCN2CCC3(CC3)[C@H](O)C2)CCN1c1ccc(Cl)c(Cl)c1 [Example 94, (S)-4-(3,4-Dichloro-phenyl)-1-[4-((S)-4-hydroxy-6-aza-spiro[2.5]oct-6-yl)-butyl]-3-methyl-piperazin-2-one] |
| 26 | C[C@H]1C(=O)N(CCCN2CCC3(CC3)[C@H](O)C2)CCN1c1ccc(C(F)(F)F)cc1 [Example 96, (S)-1-[3-((S)-4-Hydroxy-6-aza-spiro[2.5]oct-6-yl)-propyl]-3-methyl-4-(4-trifluoromethyl-phenyl)-piperazin-2-one] |
| 6 | C[C@H]1C(=O)N(CCCN2CCC3(CC3)[C@H](O)C2)CCN1c1ccc(C(F)(F)F)c(F)c1 [Example 102, (S)-4-(3-Fluoro-4-trifluoromethyl-phenyl)-1-[3-((S)-4-hydroxy-6-aza-spiro[2.5]oct-6-yl)-propyl]-3-methyl-piperazin-2-one] |
| 92 | C[C@@H]1C(=O)N(CCCN2CCC3(CC3)[C@H](O)C2)CCN1c1ccc(C(F)(F)F)c(F)c1 [Example 103, (R)-4-(3-fluoro-4-trifluoromethyl-phenyl)-1-[3-((S)-4-hydroxy-6-aza-spiro[2.5]oct-6-yl)-propyl]-3-methyl-piperazin-2-one] |
